Test results: publication PMC3280956, “DOGS: Reaction-Driven de novo Design of Bioactive Compounds” (PLoS Computational Biology, 2012)
Values belong to the compound of their own block, whether it stands above or below them.

Experiments:
γ-secretase = γ-secretase (Homo sapiens, UniProt P49768); assay: Aβ sandwich ELISA in supernatants of CHO cells overexpressing human APP and presenilin-1; assay type: cell-based; settings: for Modulation of γ-secretase activity (type): Aβ38/40/42 ELISA, 0.1-40 μM
Method: One-step reactions yielded the desired products in both cases. […] Synthesized compounds were tested for their ability to modulate the γ-secretase product spectrum as previously described. CHO cells with stable overexpression of human APP and presenilin-1 were treated with increasing concentrations of 3 and 4. Subsequently, concentrations of secreted Aβ peptides were detected in cell supernatants by sandwich ELISA using C-terminus specific antibodies that distinguish between Aβ38, Aβ40, and Aβ42 peptide species. […] This pattern of inverse γ-secretase modulation has previously been observed, e.g. with derivatives of the non-steroidal anti-inflammatory drug indomethacin [35]. […] Compounds 3 and 4 can serve as tool compounds and – more importantly – as starting points for an optimization of the pharmacological profile by structural modification. […]
Figure S5. Modulation of γ-secretase activity by designed compounds 3 (A) and 4 (B). Both […]
higher levels of Aβ42. Concentrations of secreted Ab peptides were detected in cell supernatants by sandwich ELISA using C-terminus specific antibodies that distinguish between Aβ38, Aβ40, and Aβ42 peptide species as previously described.

Trypsin (bovine) = target: Trypsin (bovine); design: method as in PMID 15771442; settings: cited from earlier work
Thrombin = settings: cited from earlier work
Trypsin = settings: cited from earlier work
5-HT1D receptor = 5-HT1D receptor (Homo sapiens, UniProt P28221); assay: Cerep GPCR panel, antagonistic effect on 5-HT1D receptor; assay type: cell-based
hH4R = target: T1, hH4R (Homo sapiens, UniProt Q9H3N8); assay: Competitive binding, displacement of [3H]histamine, Sf9 membranes expressing hH4R; settings: three measurements
T1 construct: made in house; host or cells: insect Sf9 cells (membrane preparations)
Method: (§1) In order to test for the hypothesis that a combination of the features – as found in compound 7 – might lead to hH4R affinity, compound 7 was selected for synthesis and testing. […] Binding affinity of compound 7 was determined in a competitive binding assay by measuring displacement of radioactively labeled [^3H]histamine bound to hH4R [42]. Membrane preparations of insect Sf9 cells expressing hH4R together with G-protein subunits Gαi2 and Gβ1γ2 were performed to yield the protein. A similar assay was used to measure the activity on hH3R (reference ligand: [^3H]N ^α-methylhistamine).

hH3R = hH3R (Homo sapiens, UniProt Q9Y5N1); assay: Competitive binding, displacement of [3H]Nα-methylhistamine at hH3R; settings: averaged over four distinct tests
Method: as §1

δ2 opioid receptor = δ2 opioid receptor (Homo sapiens, UniProt P41143); assay: Cerep GPCR panel, antagonistic effect on δ2 opioid receptor; assay type: cell-based; settings: n = 2
other GPCRs in the panel = assay: Cerep panel, other human GPCRs; assay type: cell-based; settings: remaining GPCRs of the 30-receptor panel
κ opioid receptor = κ opioid receptor (Homo sapiens, UniProt P41145)
Sequence of κ opioid receptor (P41145 whole entry): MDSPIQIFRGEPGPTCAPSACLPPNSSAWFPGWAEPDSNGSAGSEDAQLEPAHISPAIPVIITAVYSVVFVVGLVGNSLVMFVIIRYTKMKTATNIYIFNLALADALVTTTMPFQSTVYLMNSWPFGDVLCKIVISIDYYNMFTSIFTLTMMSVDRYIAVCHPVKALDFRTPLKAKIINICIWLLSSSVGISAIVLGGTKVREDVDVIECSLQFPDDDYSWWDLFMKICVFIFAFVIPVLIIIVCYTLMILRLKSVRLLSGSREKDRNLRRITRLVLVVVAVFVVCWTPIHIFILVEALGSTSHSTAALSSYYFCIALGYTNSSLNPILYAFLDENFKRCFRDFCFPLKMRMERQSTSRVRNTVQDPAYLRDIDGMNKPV

Sequence of 5-HT1D receptor (P28221 whole entry): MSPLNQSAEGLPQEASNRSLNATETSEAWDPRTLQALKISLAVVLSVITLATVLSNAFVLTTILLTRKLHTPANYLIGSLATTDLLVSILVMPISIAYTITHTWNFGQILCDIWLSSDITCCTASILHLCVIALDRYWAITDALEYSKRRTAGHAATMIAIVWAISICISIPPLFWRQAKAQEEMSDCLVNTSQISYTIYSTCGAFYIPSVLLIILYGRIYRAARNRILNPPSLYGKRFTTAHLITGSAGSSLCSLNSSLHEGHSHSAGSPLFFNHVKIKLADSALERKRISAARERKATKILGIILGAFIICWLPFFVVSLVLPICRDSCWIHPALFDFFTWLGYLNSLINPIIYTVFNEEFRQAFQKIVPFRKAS
Sequence of δ2 opioid receptor (P41143 whole entry): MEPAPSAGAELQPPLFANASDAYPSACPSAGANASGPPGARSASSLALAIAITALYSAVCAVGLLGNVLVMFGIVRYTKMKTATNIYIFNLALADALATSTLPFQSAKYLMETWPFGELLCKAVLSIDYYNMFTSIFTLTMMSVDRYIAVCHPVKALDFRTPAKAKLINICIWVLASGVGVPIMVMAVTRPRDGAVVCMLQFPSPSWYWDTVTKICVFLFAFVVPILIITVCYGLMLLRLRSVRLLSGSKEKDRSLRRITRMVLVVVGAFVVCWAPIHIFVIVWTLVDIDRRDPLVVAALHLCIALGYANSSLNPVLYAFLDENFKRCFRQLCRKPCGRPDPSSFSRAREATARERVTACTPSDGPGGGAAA
Sequence of hH3R (Q9Y5N1 whole entry): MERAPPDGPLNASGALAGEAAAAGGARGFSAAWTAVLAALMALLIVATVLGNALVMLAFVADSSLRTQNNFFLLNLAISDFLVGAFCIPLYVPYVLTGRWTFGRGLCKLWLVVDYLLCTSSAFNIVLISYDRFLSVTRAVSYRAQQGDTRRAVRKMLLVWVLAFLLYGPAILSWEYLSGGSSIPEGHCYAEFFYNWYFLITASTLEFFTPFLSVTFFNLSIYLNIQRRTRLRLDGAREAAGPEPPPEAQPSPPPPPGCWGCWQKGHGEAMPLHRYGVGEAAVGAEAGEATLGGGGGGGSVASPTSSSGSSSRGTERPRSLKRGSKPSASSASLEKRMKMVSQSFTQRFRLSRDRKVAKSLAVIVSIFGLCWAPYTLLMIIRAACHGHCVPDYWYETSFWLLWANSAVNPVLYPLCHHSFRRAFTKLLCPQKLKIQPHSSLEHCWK

Modulation of γ-secretase activity (type) (γ-secretase): inverse modulators
SMILES: COc1ccc(N2CCN(C(=O)c3ccc(-c4cc(C(F)(F)F)ccc4Cl)o3)CC2)cc1 [Compound 4]

Modulation of γ-secretase activity (type) (γ-secretase): inverse modulators
Aβ38 levels (γ-secretase; secreted Aβ38, CHO cells, increasing concentrations): decrease
Aβ42 levels (γ-secretase; secreted Aβ42, CHO cells, increasing concentrations): dose-dependent increase
SMILES: COc1cc(-n2c(C)ccc2C)c(OC)cc1NC(=O)c1ccccc1 [Compound 3]

IC50 (5-HT1D receptor; reference compound): 1100 nM
SMILES: CSc1ccc2c(c1)C(N1CCN(C)CC1)Cc1ccccc1S2 (stereo not drawn) [methiothepin, reference compound]

Ki (hH4R): 436000 ± 137000 nM
Ki (hH3R): 466000 ± 209000 nM
residual activity of the receptor (δ2 opioid receptor): 76%
residual activity of the receptor (5-HT1D receptor; antagonistic effect, n = 2): 62%
agonistic effect, % of the effect of the reference agonist U50488 (κ opioid receptor): 21%
SMILES: Clc1cccc(-c2cn(CCOCCN3CCNCC3)nn2)c1 [Compound 7]
response at other GPCRs in the panel (other GPCRs in the panel): only weak responses in the single digit or low double-digit percent range

The next lines start with the compound.

SMILES: CN[C@H](Cc1ccccc1)C(=O)N1CCC[C@H]1C(=O)N[C@H](C=O)CCCN=C(N)N [Efegatran]
Ki (Trypsin (bovine)): 9.1 nM
Ki (Thrombin): 18 nM

SMILES: CN(C)C(=O)COC(=O)Cc1ccc(OC(=O)c2ccc(NC(=N)N)cc2)cc1 [Camostat]
Ki (Trypsin): 50.6 nM

SMILES: N=C(N)Nc1ccc(C(=O)Oc2ccc(SCCN3C(=O)CCC3=O)cc2)cc1 [Patamostat]
IC50 (Trypsin): 39 nM
IC50 (Thrombin): 1900 nM

SMILES: CC1=CCN(C(=O)C(Cc2cccc(C(=N)N)c2)NS(=O)(=O)c2ccc3c(c2)CN(C)CC3)C(C(=O)O)C1 (stereo not drawn) [UK-156406]
Ki (Trypsin): 26 nM
Ki (Thrombin): 0.46 nM
